Results: patent publication US7091182B2, “Method for assisting in differential diagnosis and treatment of autistic syndromes” (Repligen Corporation, priority 1997, dated 2006)
Entries after “also recorded” stand apart in the source; their conditions may differ.

Experiments:
[1] = tested on: ovariectomized, estrogen-primed rats; conditions: cited from earlier work
[2] = tested on: patients with intrahepatic cholestasis; conditions: double-blind placebo-controlled multicentric trial; cited from earlier work
[3] = tested on: children with autistic behavior; test: Stool consistency / gastrointestinal symptoms after endoscopy and secretin injection; type: in vivo, human
Source text: The specific procedures were as follows.

[4] = tested on: children with autistic behavior; test: Behavioral evaluation after secretin administration; type: in vivo, human
Source text: Prior to the secretion administration, each child underwent developmental/psychological evaluation. […] In addition, most underwent a structured evaluation including assessment of intelligence, language ability, adaptive function [Vineland Adaptive Behavior Scales]^53 and behavioral rating scales [Child Behavior Checklist]^54. A more specific measure directly related to autism, the Childhood Autism Rating Scale [CARS]^55, was also used.
The most recent 8 cases had developmental/psychological evaluations at the University of Maryland or at the Kennedy Krieger Institute prior to the secretin administration.
The number and type of evaluation techniques that were employed increased across subjects as did the degree of sophistication of the professional staff involved in the design and conduct of the evaluation approaches. Specifically, data on the first seven subjects consisted of brief clinical observations, parental report, analysis of videotapes, and reports of evaluations by professionals who had conducted routine assessments not specifically dictated by our research protocol. Whereas, data on the second eight subjects studied consisted of the same methods described above, as well as with the addition of direct observation of behavior employing a standard functional analysis of structured videotape samples (analyzed in random order by blind raters); standard assessments including Communication and Symbolic Behavior Scales (CSBS), Pre-School Language Scales—3 (PSLS), Bayley Scales of Infant Development: Second Edition, Vineland Adaptive Behavior Scales, Childhood Autism Rating Scale (CARS), and Behavior Observation System (BOS). Further, the evaluation team for the least eight subjects involved professionals from the areas of neuropsychology, behavioral psychology and developmental pediatrics from both the University of Maryland School of Medicine and the Kennedy Krieger Institute/Johns Hopkins University School of Medicine.

[5] = tested on: children with autistic behavior; test: Pancreatic stimulation with secretin during upper gastrointestinal endoscopy, collection of pancreatico-biliary fluid; type: in vivo, human
Procedure: After fasting from midnight, upper gastrointestinal endoscopies were carried out the next morning under general anesthesia. All gastric juice was aspirated before passing the endoscope into the duodenum. The pancreatico-biliary juice was collected after positioning the endoscope distal to the ampulla of Vater. An ERCP catheter was placed into the channel of endoscope and the fluid was collected by moving the tip into the outcoming fluid and suctioning it into a syringe. The pancreas was then stimulated with secretin 2 IU/kg BW (Ferring Laboratories, Inc. Suffern, NY, USA) given intravenously within a minute. Three additional specimens were collected after the secretin injection within a 10-minute period. Blood samples were collected prior to and 10 minutes after secretin stimulation. In a subgroup of children, the effect of duodenal acidification was determined by measurement of blood secretin levels before and 4–5 minutes after washing the second part of the duodenum with 0.05M hydrochloric acid for 5 minutes. At the end of the procedure, biopsies were obtained of the small intestine, esophagus and stomach.
The volume of secreted fluid was calculated as ml/min and the aspirated juice analyzed for pH, protein (mg/ml; Bio-Rad protein assay), and for enzymes (amylase, trypsin, lipase, chymotrypsin, and carboxypeptidase A and B). These enzyme assays were modified by us and run regularly in our certified Clinical Laboratory. An aliquot of collected fluid was sent for bacterial and fungal culture. Intestinal biopsy specimens were homogenized in ice-cold distilled water and the activities of lactase, maltase, sucrase, palatinase and glucoamylase were measured using the Dahlquist intestinal disaccharidases assay [Dahlquist, Anal. Biochem. 22:99–107 (1968); Azad M, Pediatr Res, 1990;28: 166–170 (1990)]. The normal values were established based on measurements of histological normal intestinal biopsy tissues (n=104) at the University of Maryland. In our practice, digestive enzyme activities below the established 3d percentile values are considered abnormal.

[6] = tested on: children without behavioral abnormalities; adults; test: Secretin stimulatory response (pancreatic juice output) in non-autistic children and adults; type: in vivo, human
Procedure: The time required to collect basal duodenal fluid samples (1–2 ml) prior to secretin administration was 2–5 minutes, which was similar to that of non-autistic controls. […] Published adult responses using duodenal intubation and extended periods of specimen collection vary between 1.5 and 4.9 ml/min^56,57. Six out of 7 autistic patients who had chronic loose stools had pancreatico-biliary secretion rates above 5 ml/min (FIG. 4). […] The highest rate of secretion was 10 ml/min in one child.

## secretin
[1]
  circadian rise of LH secretion: strikingly effective in increasing
[2]
  reduction of serum bilirubin levels, secretin versus placebo: no statistically significant differences
[3]; Case 1, within three weeks after the procedure
  chronic diarrhea: their chronic diarrhea resolved; also recorded: His chronic diarrhea resolved
[3]; Case 3
  chronic diarrhea: His chronic diarrhea resolved
[3]; seven children with chronic loose stools
  duration of stool improvement: In five children this improvement was permanent
[3]; seven children with chronic loose stools, after endoscopy and secretin injection
  consistency of stools: all of them had an improvement in the consistency of stools
[4]; Case 1
  latest behavioral evaluation (diagnosis): changed from a low functioning autistic child to a social, non-autistic, speech delayed child; also recorded: changed from a low functioning autistic child to a social, non-autistic, speech-delayed child
[4]; Case 1, after first secretin dose
  changes in autistic behavior: dramatic improvement in eye contact, alertness, expressive language and fine motor skills; also recorded: improvements in eye contact, alertness, expressive language, and fine motor skills
[4]; Case 1, second single secretin infusion eight months later
  language and cognitive functions: further improvement in their language and cognitive functions
[4]; Case 2, five weeks following a single dosage
  cognitive skills: progressive improvement in cognitive skills; also recorded: improved over a five weeks period
[4]; Case 2, second dose 3 months later
  social behavior and language: further improvement in their social behavior and language
[4]; Case 3, second infusion 3 months later
  language and communication skills: accelerated their improvement
[4]; Case 3, three weeks and two months after the procedure
  language, social, and communication skills: significant improvements in language, social, and communication skills; also recorded: improved significantly
[4]; Case #1, within two months, % of the time, before: Minimal eye contact
  Progress after Secretin administration: eye contact: Eye contact 75% of the time
[4]; Case #1, within two months, before: Abnormal bowel movements
  Progress after Secretin administration: bowel movements: Normal bowel movements
[4]; Case #1, within two months, before: Consistent sleeping problems
  Progress after Secretin administration: sleeping: Has slept through almost every night entirely
[4]; Case #1, within two months, before: Diapers only
  Progress after Secretin administration: potty training: Completely potty trained
[4]; Case #1, within two months, before: Did not imitate commands
  Progress after Secretin administration: imitating commands: Will imitate almost any multi-step command
[4]; Case #1, within two months, before: Excessive water consumption
  Progress after Secretin administration: water consumption: Excessive water consumption - no change
[4]; Case #1, within two months, before: Infrequent (1–2 times/week)
  Progress after Secretin administration: spinning episodes: No spinning episodes
[4]; Case #1, within two months, before: Limited diet preferences
  Progress after Secretin administration: diet preferences: No change
[4]; Case #1, within two months, before: No apparent connections
  Progress after Secretin administration: connections between language and objects: Many connections made between new language learned and objects. Recites
[4]; Case #1, within two months, before: No flash cards
  Progress after Secretin administration: flash cards: 40–50 Flash cards
[4]; Case #1, within two months, before: No focus on requested tasks
  Progress after Secretin administration: focus on requested tasks: Will sit and watch carefully. Will perform most tasks after watching once or
[4]; Case #1, within two months, before: No interest in drawing
  Progress after Secretin administration: interest in drawing: Wants to draw constantly. Will draw complete face and name the parts as he
[4]; Case #1, within two months, before: No response
  Progress after Secretin administration: response to request for gestures: Responds to all kinds of requests and spontaneously says these things themself.
[4]; Case #1, within two months, before: No sentences
  Progress after Secretin administration: sentences: Short sentences, such as “I love you”, “I want juice”, “Good night mammy”
[4]; Case #1, within two months, before: Two words
  Progress after Secretin administration: words: 100's of words - will repeat some aproximation at any word requested
[4]; Case #1, within two months, before: Watch videos
  Progress after Secretin administration: videos: Now gets “involved” interactively with their videos. They will imitate the hand
[4]; all children who received secretin
  autistic symptoms and cognitive, language, and social skills, share of responders: more than half of the children
[4]; case #2, time 1 week
  Changes after Secretin: Activity level: Very energetic but has very good focus during
  Changes after Secretin: Appetite: Eating more foods: 2–3 large meals per day:
  Changes after Secretin: Movements: A decrease in most abnormal movements but
  Changes after Secretin: Social interaction: Hugging therapists; better eye contact,
[4]; case #2, time 1 week, before: 50% correct responses
  Changes after Secretin: Correct responses to drills: 75–80% correct responses
[4]; case #2, time 2–3 days
  Changes after Secretin: Bowel movements: At first constipated for 2–3 days. then normal
[4]; case #2, time 3 weeks, before: 20–30% of commands
  Changes after Secretin: Receptive language, commands understood: understands where they are going: understands 75%
[4]; case #2, time 4 weeks
  Changes after Secretin: Fine motor: Putting together Legos: turns key in door; turns
  Changes after Secretin: Gross motor: Starts to hang on monkey bars: goes down fire
[4]; case #2, time 1 day, before: 7–8 hours
  Changes after Secretin: Sleep: 10–12 hours per night uninterrupted every night
[4]; case #2, time 2 days
  Changes after Secretin: Alertness, concentration: Extremely alert: looking therapist directly in
[4]; case #3
  Changes: Activity level: Less hyperactive. More settled. More attentive and
  Changes: Alertness, concentration: Chewing clothing, hands, and licking have stopped.
  Changes: Appetite: Normal diet seems to satisfy them more. No longer
  Changes: Cognitive: Actions are more purposeful. Playing sequencing,
  Changes: Eye contact: More eye contact. Seeks out attention and once
  Changes: Fine motor skills: Now uses fork and spoon much more readily and
  Changes: Sleep: Now goes to bed willing and happily. Takes great
  Changes: Social interaction: Now has a friend at school. They participate actively in
[4]; case #3, before: 50% correct responses
  Changes: Correct responses to drills/commands: Rarely guessing. Very tuned in. Perhaps 80% correct
[4]; case #3, before: Loose stools or diarrhea
  Changes: Bowel movements: Normal bowel movement since week three
[4]; case #3, before: understood 50% of commands
  Changes: Receptive language: Understands almost everything. Understands two-step
[4]; case three, immediately after secretin administration
  increase in the scores on the Vineland Scale of Adaptive Behavior: 22%
[4]; case three, one-to-two months later
  delayed reaction reported by the parents: improved eye contact, increased focus on tasks, as well as improvements in language
[4]; case two, after the secretin injection
  language skills: significant improvement in language skills
[4]; child SG
  Vineland Scale of Adaptive Behaviors: increase in all five areas tested
  increase in the CSBS: 25%
  increases in language skills: six-to-nine month
[4]; child WB
  increase in language skills measured by the PSLS (equivalent in development): five months to one year
  increase on the Bayley Scale of Development: 11 point
[4]; child WB, within four months
  increase on the CSBS scale: 37%
[4]; each of the three cases
  autistic symptoms: produced relief from autistic symptoms
[4]; first seven subjects, parental report and non-protocol evaluations
  cognitive, social, language, and age appropriate skills: dramatic changes in cognitive, social, language, and age appropriate skills were reported for four of the first seven subjects
[4]; subject one
  decrease of activity level measured by actometers: 50%
  increase on the BOS: 22%
[5]; Case 1, after 2 IU/kg BW of secretin
  pancreatic secretory response: 10 mL/min
[5]; Case 2, 2 IU/kg body weight of secretin
  secretory response after secretin administration: 7.5 mL/min
[5]; Case 3
  pancreato-biliary response to secretin, output: 8 mL/min
[5]; Group I (chronic loose stools/diarrhea)
  Pancreatic secretion: Increased (>5 ml/min)
[5]; Group II (no diarrhea)
  Pancreatic secretion: Normal (<4 ml/min)
[5]; all children, after secretin injection
  pancreato-biliary secretory response compared to non-autistic patients: extensive pancreato-biliary secretory response
[5]; in one child
  highest rate of secretion: 10 mL/min
[5]; six out of 7 autistic patients who had chronic loose stools
  pancreatico-biliary secretion rates: above 5 ml/min
[6]; children 3–7 years of age, own data, same endoscopic collection technique
  average stimulatory response for secretin: 1 to 2 mL/min
[6]; children without behavioral abnormalities, ages 1 to 6
  typical pancreatic juice output: 1 to 2 mL/min
